Consider two compounds from patent publication EP0476645B1, “Calcium uptake inhibitors” (MERRELL DOW PHARMACEUTICALS INC., priority 1990, dated 1992).

The subject of experiment [1] is Rat PMNL. Nature of the experiment: Measurement of intracellular calcium in fMLP-stimulated PMNL preloaded with Fura-2. It is filed as cell-based. The following applies: fMLP stimulus, preincubation with compound 15 minutes at 37°C, concentrations in figure 1. As to the method:
(§1) Rat PMNL were obtained from exudates resulting from peritoneal injection of 6 mL of 8% sodium caseinate. Eighteen hours after injection rats were killed by carbon dioxide inhalation and the peritoneal cavity lavaged with Hank's balanced salt solution (HBSS). After concentration of the PMNL by centrifugation, contaminating erythrocytes were removed by hypotonic lysis. The PMNL were then washed twice by centrifugation (400 x g for 10 minutes) and resuspended in HBSS. Cell viability was greater than 90% by Trypan Blue exclusion and greater than 90% of the cells were PMNL by Wright-Giemsa stain.
Intracellular calcium levels were obtained using Fura-2 as fluorescent indicator (Grynkiewicz et al., 1985). Fura-2 was loaded into PMNL as the acetoxymethyl ester (Fura-2/AM) using the method of Korchak et al., (1988). Specifically, 1 X 10⁸ PMNL/mL were incubated in HBSS with 10 µM Fura-2/AM for 10 minutes at 37°C. The cells suspension was then diluted ten fold with HBSS and further incubated for another 20 minutes. The cells were then centrifuged (400 x g for 8 minutes at 25°C) and the PMNL (1 x 10⁷ cells/mL) resuspended in HBSS containing 1% bovine serum albumin. Cells were stored at room temperature and used within 3 hours.
Intracellular calcium level determinations were made using a dual wavelength spectrofluorometer (Photon Technology International, New Brunswick, NJ). Two mL of PMNL suspension (1 x 10⁷ cells/mL) were stirred magnetically at 37°C. Cells were preincubated with the compounds for 15 minutes at 37°C prior to activation. Where compounds were dissolved in DMSO and added directly, the DMSO never exceeded 0.3% in the final cell suspension. Total change in volume with addition of compounds or vehicle and stimuli never exceeded 3%. Intracellular calcium concentrations were calibrated by setting a maximum calcium level in the cells with the addition of 7 µM ionomycin to PMNL in HBSS containing 1% BSA. This was followed by treatment with 20 mM EGTA for 1 hour to obtain a minimum calcium level. […]

For experiment [2], the system named is Mustard Oil-Induced Mouse Ear Edema. Nature of the experiment: Mustard oil-induced mouse ear edema. The following applies: ear weight increase after 30 minutes. In kind it is in vivo, Charles River male CD-1 mice. As to the method: Charles River male CD-1 mice weighing 30-60 grams were divided into randomized groups. They were dosed i.p. for 30 minutes prior or orally 1 hour prior to application of 20 µl of mustard oil (10% isothiocyanate in acetone) to the right ear. After 30 minutes the mice were sacrificed and an 8 millimeter diameter circular punch biopsy of each ear was obtained and weighed. The difference between the left (control) and right (treated) ear weights were expressed as percent increase.

For experiment [3], the system named is Rat PMNL. Put plainly: Myeloperoxidase (MPO) release from stimulated PMNL. In kind it is cell-based. The following applies: for inhibition at 1 µM / inhibition at 3 µM / inhibition at 10 µM / inhibition at 30 µM / inhibition at 100 µM: Rattus norvegicus, PMNL, inhibition of MPO release; for inhibition at 1 µM: 1 µM compound; for inhibition at 3 µM: 3 µM compound; for inhibition at 10 µM: 10 µM compound; for inhibition at 30 µM: 30 µM compound; for inhibition at 100 µM: 100 µM compound; for inhibition of release of myeloperoxidase: fMLP with cytochalasin B, opsonized zymosan or ionomycin stimulus, result in words. Here is the method: as §1
MPO release was determined using the MPO catalyzed oxidation of o-dianisidine. The experiments were carried out in 96-well microtiter plates (Webster and Henson, 1978). In each well, 50 microliter (µl) aliquots of a PMNL suspension (2 x 10⁷ cells/mL in HBSS) were incubated with 50 µl of HBSS containing vehicle (0.3% DMSO) or inhibitor for 30 minutes at 37°C. The final DMSO concentration never exceeded 0.3% and was constant throughout each experiment. To activate the PMNL, 50 µl of one of the following were added for 30 minutes at 37°C: N-formyl-Met-Leu-Phe (fMLP; 0.1 µM); phorbol myristate acetate (PMA, 200 ng/mL); or rat serum opsonized zymosan (OZ; 2.6 mg/mL, prepared by the method of Ward et al., 1983). The stimuli were added in 50 µl HBSS which also contained the compounds or vehicle, as appropriate, to avoid changing the inhibitor concentration. Cell activation was terminated by centrifugation of the plates at 600 x g for 5 minutes at 22°C. Aliquots (100 µl) of supernatant were removed from each well and transferred to a 96-well flatbottomed microtiter plate for the MPO assay. To each aliquot of supernatant was added 100 µl of a freshly prepared solution containing 50 µl of 0.2 M sodium phosphate buffer (pH 6.2), 25 µl of 3.9 mM o-dianisidine and 25 µl of 0.015 M hydrogen peroxide. Blanks were obtained using the same solution without hydrogen peroxide. The plates were mixed and then incubated at room temperature in the dark for about 15 minutes. Absorbances of the samples were measured at 450 nm.
Rat PMNL were isolated in HBSS containing Ca⁺². As summarized in the figures below, fMLP stimulation of rat PMNL in the presence of cytochalasin B or with opsonized zymosan or with ionomycin results in the release of myeloperoxidase (fMLP/MPO, OZ/MPO, and ION/MPO; columns 2, 4, and 6 respectively).

The mark [4] stands for this setting: 10 mg/Kg i.p., 30 minutes prior to mustard oil.
Where [5] appears, read: 10 mg/Kg oral, 1 hour prior to mustard oil.
Setting [6] is: 30 mg/Kg i.p., 30 minutes prior to mustard oil.
Setting [7] is: 30 mg/Kg oral, 1 hour prior to mustard oil.
Setting [8] is: 100 mg/Kg i.p., 30 minutes prior to mustard oil.
[9] abbreviates: 100 mg/Kg oral, 1 hour prior to mustard oil.
Setting [10] is: fMLP stimulus in the presence of cytochalasin B, read-out: IMLP/MPO.
Where [11] appears, read: ionomycin stimulus, read-out: ION/MPO.
[12] abbreviates: opsonized zymosan stimulus, read-out: OZ/MPO.

Molecules are shown by their SMILES. Read-outs that look alike come from different tables or passages of the source.

Turning to `CN(C)c1ccc(C(=O)C#Cc2ccncc2)cc1` [MDL 102,175, 1-(4-Dimethylaminophenyl)-3-(4-pyridinyl)-2-propyne-1-one], in the experiment on Rat PMNL [1], the “suppression of the second wave of intracellular calcium changes” value is “selective concentration-dependent suppression”. In addition, the “%Inhibition” value in experiment [2] (setting [4]) is reported as 38.6 ± 13.1%; in experiment [2] (setting [5]), 38.5 ± 34.9%; in experiment [2] (setting [6]), 56.8 ± 6.4%; in experiment [2] (setting [7]), 6.4 ± 27.7%; in experiment [2] (setting [8]), 68.2 ± 5.8%; in experiment [2] (setting [9]) it was 43.9 ± 15.6%. Besides, the values for the inhibition at 1 µM in the experiment with Rat PMNL [3] (setting [10]), in the experiment with Rat PMNL [3] (setting [11]) and in the experiment with Rat PMNL [3] (setting [12]) were 12.6%, 0.8% and 16.9%, respectively. The inhibition at 3 µM is 27.9% in the experiment on Rat PMNL [3] (setting [10]), 1.5% with Rat PMNL [3] (setting [11]) and 26.6% in the experiment on Rat PMNL [3] (setting [12]). Moreover, the inhibition at 10 µM turned out to be 70.6% with Rat PMNL [3] (setting [10]), 21.3% in the experiment on Rat PMNL [3] (setting [11]) and 78.5% in the experiment on Rat PMNL [3] (setting [12]). Besides, the inhibition at 30 µM with Rat PMNL [3] (setting [10]) is 104%; with Rat PMNL [3] (setting [11]), 20.5%; in the experiment with Rat PMNL [3] (setting [12]) it was 107%. The inhibition at 100 µM in the experiment on Rat PMNL [3] (setting [10]) is 113%; in the experiment on Rat PMNL [3] (setting [11]), 83.4%; in the experiment on Rat PMNL [3] (setting [12]), 118%. In the experiment on Rat PMNL [3], the “inhibition of release of myeloperoxidase” value is listed as “dose dependent inhibition”.

In the case of `O=C(C#Cc1ccncc1)c1ccccc1` [MDL 101,098, 1-Phenyl-3-(4-pyridinyl)-2-propyne-1-one], the “suppression of the second wave of intracellular calcium changes” value in the experiment with Rat PMNL [1] is listed as “selective concentration-dependent suppression”. Besides, the “%Inhibition” value in experiment [2] (setting [4]) turned out to be 38.6 ± 13.1%; in experiment [2] (setting [5]), 38.5 ± 34.9%; in experiment [2] (setting [6]) it was 56.8 ± 6.4%; in experiment [2] (setting [7]), 6.4 ± 27.7%; in experiment [2] (setting [8]), 68.2 ± 5.8%; in experiment [2] (setting [9]), 43.9 ± 15.6%. Also, the inhibition at 1 µM in the experiment with Rat PMNL [3] (setting [10]) was 2.9%; in the experiment with Rat PMNL [3] (setting [11]), -2.8%; in the experiment on Rat PMNL [3] (setting [12]) it was 5.4%. Moreover, the inhibition at 3 µM in the experiment on Rat PMNL [3] (setting [10]) worked out at 7.5%; with Rat PMNL [3] (setting [11]), 0%; with Rat PMNL [3] (setting [12]) it was 14.7%. The inhibition at 10 µM is 34.9% in the experiment with Rat PMNL [3] (setting [10]), 5.7% in the experiment with Rat PMNL [3] (setting [11]) and 48.7% with Rat PMNL [3] (setting [12]). Moreover, the figures for the inhibition at 30 µM in the experiment on Rat PMNL [3] (setting [10]), with Rat PMNL [3] (setting [11]) and with Rat PMNL [3] (setting [12]) were 80.8%, 12.7% and 92.2%, respectively. For the same compound, the inhibition at 100 µM is 96.2% in the experiment with Rat PMNL [3] (setting [10]), 88.4% in the experiment on Rat PMNL [3] (setting [11]) and 97.2% in the experiment on Rat PMNL [3] (setting [12]). Moreover, the “inhibition of release of myeloperoxidase” value in the experiment with Rat PMNL [3] was “dose dependent inhibition”.
